# Assay results from paper PMC9516332 (Frontiers in Oncology, 2022).
# Where two headings read alike, the source gives them in different places.
# Experiments:
# Assay in all cases: Kinase panel profiling at 1 µmol/L (MSA or IMAP), percentage inhibition
# Type in all cases: biochemical
# [1] = molecular target: panel of 255 wild-type kinases (Homo sapiens, UniProt Q96SB4); details: read-out: %-inhibition at 1 µmol/L, SRPK1
# [2] = molecular target: T1, panel of 255 wild-type kinases (Homo sapiens, UniProt Q13470); details: read-out: %-inhibition at 1 µmol/L, TNK1
# T1 sequence (Q13470 1-666): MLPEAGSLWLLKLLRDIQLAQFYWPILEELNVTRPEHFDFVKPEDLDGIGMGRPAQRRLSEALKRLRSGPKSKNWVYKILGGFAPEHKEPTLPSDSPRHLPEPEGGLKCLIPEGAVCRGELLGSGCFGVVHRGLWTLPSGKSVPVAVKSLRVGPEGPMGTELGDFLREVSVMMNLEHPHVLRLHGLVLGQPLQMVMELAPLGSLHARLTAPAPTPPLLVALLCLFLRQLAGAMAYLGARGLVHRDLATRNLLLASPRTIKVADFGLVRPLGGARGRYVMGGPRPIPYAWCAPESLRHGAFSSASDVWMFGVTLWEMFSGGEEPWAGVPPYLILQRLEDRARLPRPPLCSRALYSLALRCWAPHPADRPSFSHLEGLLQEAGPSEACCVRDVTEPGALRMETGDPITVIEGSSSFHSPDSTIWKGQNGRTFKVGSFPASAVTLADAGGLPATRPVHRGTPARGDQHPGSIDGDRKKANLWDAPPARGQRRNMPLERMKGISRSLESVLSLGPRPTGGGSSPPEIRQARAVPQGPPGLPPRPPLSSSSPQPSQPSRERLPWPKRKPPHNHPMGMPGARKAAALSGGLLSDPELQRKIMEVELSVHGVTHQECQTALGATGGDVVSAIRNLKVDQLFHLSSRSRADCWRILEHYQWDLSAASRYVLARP
# [3] = molecular target: panel of 255 wild-type kinases (Homo sapiens, UniProt O95819); details: read-out: %-inhibition at 1 µmol/L, HGK
# [4] = molecular target: panel of 255 wild-type kinases (Homo sapiens, UniProt Q13557); details: read-out: %-inhibition CaMK2δ
# [5] = molecular target: T2, panel of 255 wild-type kinases (Homo sapiens, UniProt Q96KB5); details: read-out: %-inhibition at 1 µmol/L, PBK
# T2 sequence (Q96KB5 1-322): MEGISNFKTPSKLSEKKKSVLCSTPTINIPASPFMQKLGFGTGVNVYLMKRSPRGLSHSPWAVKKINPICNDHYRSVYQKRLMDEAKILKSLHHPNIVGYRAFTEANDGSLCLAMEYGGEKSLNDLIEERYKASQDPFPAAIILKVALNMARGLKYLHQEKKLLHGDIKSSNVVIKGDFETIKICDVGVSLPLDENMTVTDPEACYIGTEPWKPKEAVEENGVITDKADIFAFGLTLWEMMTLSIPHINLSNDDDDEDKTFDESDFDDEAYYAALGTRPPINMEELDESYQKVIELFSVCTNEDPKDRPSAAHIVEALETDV
# [6] = molecular target: panel of 255 wild-type kinases (Homo sapiens, UniProt P28482); details: read-out: %-inhibition at 1 µmol/L, Erk2
# [7] = molecular target: T3, panel of 255 wild-type kinases (Homo sapiens, UniProt Q8NE63); details: read-out: %-inhibition at 1 µmol/L, HIPK4
# T3 sequence (Q8NE63 1-616): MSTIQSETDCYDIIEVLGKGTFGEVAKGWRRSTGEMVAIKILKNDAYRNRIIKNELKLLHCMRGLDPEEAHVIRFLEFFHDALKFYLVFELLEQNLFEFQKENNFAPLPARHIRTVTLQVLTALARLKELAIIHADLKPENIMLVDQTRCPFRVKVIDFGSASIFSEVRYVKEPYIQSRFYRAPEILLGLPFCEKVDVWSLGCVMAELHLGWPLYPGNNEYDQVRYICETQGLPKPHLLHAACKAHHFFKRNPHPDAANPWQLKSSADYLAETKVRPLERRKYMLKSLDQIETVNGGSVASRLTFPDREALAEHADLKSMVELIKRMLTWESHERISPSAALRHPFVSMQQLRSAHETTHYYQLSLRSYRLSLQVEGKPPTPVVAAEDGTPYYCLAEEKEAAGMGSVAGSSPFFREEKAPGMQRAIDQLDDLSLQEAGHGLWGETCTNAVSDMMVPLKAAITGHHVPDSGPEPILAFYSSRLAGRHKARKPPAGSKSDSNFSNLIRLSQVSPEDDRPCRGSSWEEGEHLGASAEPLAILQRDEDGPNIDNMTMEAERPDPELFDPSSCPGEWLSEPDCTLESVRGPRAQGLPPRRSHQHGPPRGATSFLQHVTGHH
# [8] = kinase SRPK1, 1 µmol/L single concentration
# [9] = kinase TNK1, 1 µmol/L single concentration
# [10] = kinase HGK, 1 µmol/L single concentration
# [11] = CaMK2δ kinase assay, 1 µmol/L single concentration
# [12] = kinase PBK, 1 µmol/L single concentration
# [13] = kinase Erk2, 1 µmol/L single concentration
# [14] = kinase HIPK4, 1 µmol/L single concentration
SMILES,"inhibition at 1 µM [1, 8]","inhibition at 1 µM [2, 9]","inhibition at 1 µM [3, 10]","inhibition at 1 µM [4, 11]","inhibition at 1 µM [5, 12]","inhibition at 1 µM [6, 13]","inhibition at 1 µM [7, 14]",inhibition at 1 µM [1],inhibition at 1 µM [2],inhibition at 1 µM [3],inhibition at 1 µM [4],inhibition at 1 µM [5],inhibition at 1 µM [6],inhibition at 1 µM [7]
Cc1nc(NC(=O)N2CCC[C@H]2C(N)=O)sc1-c1ccnc(C(C)(C)C(F)(F)F)c1 [alpelisib],6%,-4.23%,2.66%,0.814%,-1.24%,-0.753%,64%,,,,,,,
Cn1cc(-c2cc3c(N4CCN(c5ncc([C@@](C)(N)c6ccc(F)cc6)cn5)CC4)ncnn3c2)cn1 [avapritinib],-12%,19%,37%,-2.56%,-3%,5%,46%,,,,,,,
Cn1cnc2c(F)c(Nc3ccc(Br)cc3F)c(C(=O)NOCCO)cc21 [binimetinib],-3.37%,-8%,3.18%,-4%,0.203%,0.0301%,-3.77%,,,,,,,
CNC(=O)c1ccc(-c2cnc3ncc(Cc4ccc5ncccc5c4)n3n2)cc1F [capmatinib],,,,,,,,-6%,-11%,2.68%,-1.07%,-4%,1.14%,3.67%
COc1cc2ncnc(Nc3ccc(F)c(Cl)c3)c2cc1NC(=O)/C=C/CN1CCCCC1 [dacomitinib],-9.5%,35%,39%,9%,-3.28%,-1.48%,85%,,,,,,,
C[C@H](Nc1ncnc2nc[nH]c12)c1cc2cccc(Cl)c2c(=O)n1-c1ccccc1 [duvelisib],4%,-2.72%,2%,4%,-1.84%,0.0602%,5%,,,,,,,
COC(=O)N[C@@H](C)CNc1nccc(-c2cn(C(C)C)nc2-c2cc(Cl)cc(NS(C)(=O)=O)c2F)n1 [encorafenib],-5%,-3.4%,7.59%,-2.79%,8%,2.55%,59%,,,,,,,
CN1CCN(c2ccc(C(=O)Nc3n[nH]c4ccc(Cc5cc(F)cc(F)c5)cc34)c(NC3CCOCC3)c2)CC1 [entrectinib],2.16%,99%,7%,28%,-5.43%,-0.572%,14%,,,,,,,
CCc1nc(C(N)=O)c(Nc2ccc(N3CCC(N4CCN(C)CC4)CC3)c(OC)c2)nc1NC1CCOCC1 [gilteritinib],-8%,97%,96%,84%,-2.54%,-1.15%,99%,,,,,,,
CCN1CCN(c2ccc(Nc3cc(N(C)C(=O)Nc4c(Cl)c(OC)cc(OC)c4Cl)ncn3)cc2)CC1 [infigratinib],-0.85%,21%,15%,-1.48%,-1.71%,-4%,6%,,,,,,,
O=C(Nc1cnn2ccc(N3CCC[C@@H]3c3cc(F)ccc3F)nc12)N1CC[C@H](O)C1 [larotrectinib],-12%,-0.876%,2.53%,6%,-5.44%,-6%,6%,,,,,,,
C[C@H]1Oc2cc(cnc2N)-c2c(nn(C)c2C#N)CN(C)C(=O)c2ccc(F)cc21 [lorlatinib],5.65%,97%,1%,36%,1.39%,0.392%,2.62%,,,,,,,
CCN1C(=O)N(c2c(F)c(OC)cc(OC)c2F)Cc2cnc3[nH]c(CN4CCOCC4)cc3c21 [pemigatinib],-12%,5%,4.64%,11%,-5.57%,-1.6%,28%,,,,,,,
FC(F)(F)c1ccc(CNc2ccc(Cc3c[nH]c4ncc(Cl)cc34)cn2)cn1 [pexidartinib],-20%,37%,24%,5.41%,-1.68%,-3.53%,52%,,,,,,,
CO[C@]1(C(=O)N[C@@H](C)c2ccc(-n3cc(F)cn3)nc2)CC[C@H](c2nc(C)cc(Nc3cc(C)[nH]n3)n2)CC1 [pralsetinib],-4%,71%,3%,-1%,-1.86%,0.23%,44%,,,,,,,
CCn1c(=O)c(-c2cc(NC(=O)Nc3ccccc3)c(F)cc2Br)cc2cnc(NC)cc21 [ripretinib],-13%,17%,13%,0.353%,-4%,-2.43%,98%,,,,,,,
COc1ccc(CN2C3CC2CN(c2ccc(-c4cc(OCC(C)(C)O)cn5ncc(C#N)c45)cn2)C3)cn1 [selpercatinib],-9%,30%,7%,1.36%,-7%,-4%,21%,,,,,,,
Cn1cnc2c(F)c(Nc3ccc(Br)cc3Cl)c(C(=O)NOCCO)cc21 [selumetinib],6%,-8%,1.58%,-3%,-3%,-4.4%,10%,,,,,,,
Cc1cc(Nc2ncnc3ccc(NC4=NC(C)(C)CO4)cc23)ccc1Oc1ccn2ncnc2c1 [tucatinib],-3%,4.33%,3.65%,-3%,1.21%,-0.547%,21%,,,,,,,
C=CC(=O)N1CCC([C@@H]2CCNc3c(C(N)=O)c(-c4ccc(Oc5ccccc5)cc4)nn32)CC1 [zanubrutinib],-6%,1.66%,5.63%,3%,-4%,-5%,7%,,,,,,,
